Measured values as given in patent US9028856B2, “Synergistic pesticide compositions” (priority 2008, dated 2015).

Experiments:
[1] = test system: Culex quinquefasciatus mosquito; experiment: USDA Petri Dish Method, 3 min exposure to treated glazed tile (twenty 4-6 day old females); format: in vivo; details: for Average % Mortality after 1 hr / Average % Mortality after 3 hr / Average % Mortality after 5 hr / Average % Mortality after 24 hr: Table 77, carbaryl study, Culex quinquefasciatus; for Average % Mortality after 1 hr: glazed tile, 3 min exposure, adjuvant = Compound A 1% + Compound B 0.5%; for % KD and Mortality 3′ / % KD and Mortality 9′ / % KD and Mortality 15′ / % KD and Mortality 30′ / % KD and Mortality 1 h / % KD and Mortality 24 h: Table 73, in acetone, glazed tiles, 3′ exposure time; for % KD and Mortality 3′: 20 insects (three replicates); for % KD and Mortality 9′ / % KD and Mortality 15′ / % KD and Mortality 30′ / % KD and Mortality 1 h / % KD and Mortality 24 h: 20 insects
Procedure: (§1) MATERIALS AND METHODS: Solutions of resmethrin at 1 and 0.5% AI were prepared with and without adjuvant in acetone. […] USDA Petri Dish Method was used as initial screening protocol. Twenty, 4-6 day old female Culex quinquefasciatus mosquitoes were exposed to each treatment for 3 minutes and then moved to a clean untreated white paper index card. Treatments were replicated a minimum of three times. Mosquito knockdown was evaluated at 3 minute intervals for the first 15 minutes and then at 5 minute intervals for the remainder of an hour. A small cotton ball soaked in sucrose solution was added on the screen top of the petri-dish as a drinking source after the 2 hour evaluation. Mortality was evaluated at 24 hours after exposure.
(§2) Treatments were allowed to dry overnight. USDA Petri Dish Method was used as initial screening protocol. Twenty, 4-6 day old female Culex mosquitoes were exposed to each treatment for 3 minutes and then moved to a clean untreated white paper index card. Treatments were replicated a minimum of three times. Mosquito knockdown was evaluated at various intervals through 3 hours after exposure. A small cotton ball soaked in sucrose solution was added on the screen top of the petri-dish as a drinking source. Mortality was evaluated at 24 hours after exposure.
as §2, with “female Culex quinquefasciatus mosquitoes were” for “female Culex mosquitoes were”, “intervals through 2 hours after” for “intervals through 3 hours after”, “solution was then added on” for “solution was added on”
as §2, with “Culex quinquefasciatus” for “Culex”, “hourly intervals.” for “intervals through 3 hours after exposure.”, “source after 2 hours.” for “source.”

[2] = test system: Aedes aegypti mosquito; experiment: USDA Petri Dish Method, 3 min exposure to treated glazed tile; format: in vivo; details: glazed tile, 3 min exposure
Procedure: as §2, with “female Aedes aegypti” for “female Culex”, “through 7” for “through 3”
as §1, with “Aedes aegypti” for “Culex quinquefasciatus”, “source.” for “source after the 2 hour evaluation.”
as §2, with “female Aedes aegypti” for “female Culex”, “through 6” for “through 3”
as §2, with “Aedes aegypti” for “Culex”, “5 minute” for “various”, “for the first hour and then at 2, 4 and 6 hours.” for “through 3 hours after exposure.”
Treatments were allowed to dry overnight. USDA Petri Dish Method was used as initial screening protocol. Twenty, 4-6 day old female Aedes aegypti mosquitoes were exposed to each treatment for 3 minutes and then moved to a clean untreated white paper index card. Treatments were replicated a minimum of three times. Mosquito knockdown was evaluated at 3-5 minute intervals for the first hour. A small cotton ball soaked in sucrose solution was then added on the screen top of the petri-dish as a drinking source. Mortality was evaluated at 24 hours after exposure.
as §2, with “old female Aedes aegypti mosquitoes were” for “old female Culex mosquitoes were”, “intervals through 2 hours after” for “intervals through 3 hours after”, “solution was then added on” for “solution was added on”
Treatments were allowed to dry overnight. USDA Petri Dish Method was used as initial screening protocol. Twenty, 4-6 day old female Aedes aegypti mosquitoes were exposed to each treatment for 3 minutes and then moved to a clean untreated white paper index card. Treatments were replicated a minimum of three times. Mosquito knockdown was evaluated at various hourly intervals. […]

[3] = test system: Argentine ant, Linepithema humile; experiment: Knockdown/mortality of ant workers under continuous exposure on treated glazed tile; details: Table 49, fipronil/adjuvant in acetone, glazed tile
Procedure: (§3) Solutions of imidacloprid at 0.5% AI were prepared with and without methyl oleate @0.1, 1.0 and 5.0% in acetone. Treatments were applied using a micropipette to dispense 1 ml of test solution evenly on a 6″×6″ glazed tile. Actual coverage was about 5″×5″ (or 161 cm^2) for easy handling. Treatments were allowed to dry overnight. Ten Argentine ant workers were placed within a fluon or talc-coated PVC ring (φ7.6 cm×H 5.1 cm) under continuous exposure. A small vial filled with a cotton ball soaked in water was added as a drinking source after 3 hours. Treatments were replicated a minimum of three times. Evaluations for ant knockdown/mortality were made at various intervals and at 24 hours after exposure.
as §3, with “MATERIALS AND METHODS: Solutions” for “Solutions”, “linoleate” for “oleate”
as §3, with “MATERIALS AND METHODS: Solutions of” for “Solutions of”, “without methyl palmitate @0.1, 1.0” for “without methyl oleate @0.1, 1.0”, “after exposure. […]” for “after exposure.”

[4] = test system: Red Imported Fire ant (RIFA), Solenopsis invicta; experiment: as above; format: in vivo; details: Table 52, fipronil/adjuvant in acetone, glazed tile
Source text: (§4) Treatments were allowed to dry overnight. […] Treatments were replicated minimum three times.
(§5) Treatments were allowed to dry overnight. […] Treatments were replicated a minimum of three times.

[5] = test system: Odorous House ant, Tapinoma sessile; experiment: as above; format: in vivo; details: Table 51, fipronil/adjuvant in acetone, glazed tile
Source text: Actual coverage was about 5″×5″ (or 161 cm2) for easy handling. Treatments were allowed to dry overnight. […] Treatments were replicated minimum three times.
as §4, §5
Treatments were allowed to dry overnight. […] Treatments were replicated minimum of three times. […] The results are shown in FIG. 84 (No adjuvant alone treatment was performed).

[6] = test system: susceptible/normal German cockroach (Monheim strain), Blattella germanica; experiment: Knockdown/mortality of male cockroaches under continuous exposure on treated glazed tile; format: in vivo; details: Table 53, fipronil/adjuvant in acetone, glazed tile, Monheim strain
Procedure: Treatments were allowed to dry overnight. […] Treatments were replicated a minimum of three times. […]
Treatments were allowed to dry overnight. […] Treatments were replicated a minimum of three times. Cockroach knockdown/mortality was evaluated at 5 minute intervals for the first 60 minutes after exposure and then at 2, 18 and 24 hours.

[7] = Table 37, resmethrin/adjuvant in acetone
[8] = Table 48, fipronil/adjuvant in acetone

## CNC(=O)Oc1cccc2ccccc12 [carbaryl (2.5%)]
[1]
  Average % Mortality after 1 hr: 0%
  Average % Mortality after 3 hr: 0%
  Average % Mortality after 5 hr: 2%
  Average % Mortality after 24 hr: 5%

## CC(C)=CC1C(C(=O)OCc2coc(Cc3ccccc3)c2)C1(C)C (stereo not drawn) [Resmethrin (1%)]
[1]; in vivo
  Average % Knockdown & Mortality after 3 min: 0%
  Average % Knockdown & Mortality after 15 min: 2%
  Average % Knockdown & Mortality after 30 min: 13%
  Average % Knockdown & Mortality after 60 min: 11%
  Average % Knockdown & Mortality after 2 hr: 2%
  Average % Knockdown & Mortality after 24 hr: 4%
[2]; 3 min, Table 37, resmethrin/adjuvant in acetone
  Average % Knockdown & Mortality after 3 min: 66%
[2]; [7]
  Average % Knockdown & Mortality after 15 min: 100%
  Average % Knockdown & Mortality after 30 min: 100%
  Average % Knockdown & Mortality after 60 min: 100%
  Average % Knockdown & Mortality after 24 hr: 100%

## CNC(=O)Oc1cccc2ccccc12 [carbaryl (0.1%)]
[1]
  Average % Mortality after 1 hr: 0%
  Average % Mortality after 3 hr: 0%

## CNC(=O)Oc1cccc2c1OC(C)(C)O2 [0.01% = 5 mg Bendiocarb/m^2]
[1]
  % KD and Mortality 3′: 0%
  % KD and Mortality 9′: 0%
  % KD and Mortality 15′: 0%
  % KD and Mortality 30′: 0%
  % KD and Mortality 1 h: 0%
  % KD and Mortality 24 h: 0%

## CNC(=O)Oc1cccc2c1OC(C)(C)O2 [0.1% = 50 mg Bendiocarb/m^2]
[1]
  % KD and Mortality 3′: 0%
  % KD and Mortality 9′: 0%
  % KD and Mortality 15′: 0%
  % KD and Mortality 30′: 15%
  % KD and Mortality 1 h: 37%
  % KD and Mortality 24 h: 81%

## N#Cc1nn(-c2c(Cl)cc(C(F)(F)F)cc2Cl)c(N)c1[S+]([O-])C(F)(F)F (stereo not drawn) [Fipronil (.0001%)]
[3]; 30 min
  Average % Mortality after 30 min: 0%
[3]; 60 min
  Average % Mortality after 60 min: 0%
[3]; 2 hr
  Average % Mortality after 2 hr: 0%
[3]; 3 hr
  Average % Mortality after 3 hr: 0%
[3]; 24 hr
  Average % Mortality after 24 hr: 74%
[4]; 30 min
  Average % Mortality after 30 min: 3%
[4]; 60 min
  Average % Mortality after 60 min: 3%
[4]; 2 hr
  Average % Mortality after 2 hr: 3%
[4]; 3 hr
  Average % Mortality after 3 hr: 6%
[4]; 24 hr
  Average % Mortality after 24 hr: 47%
[5]; 30 min
  Average % Mortality after 30 min: 0%
[5]; 60 min
  Average % Mortality after 60 min: 3%
[5]; 2 hr
  Average % Mortality after 2 hr: 3%
[5]; 24 hr
  Average % Mortality after 24 hr: 54%
[6]; 60 min
  Average % Knockdown & Mortality after 60 min: 0%
[6]; 3 hr
  Average % Knockdown & Mortality after 3 hr: 7%
[6]; 5 hr
  Average % Knockdown & Mortality after 5 hr: 7%
[6]; 24 hr
  Average % Knockdown & Mortality after 24 hr: 7%
[2]; [8]
  Average % Knockdown & Mortality after 15 min: 0%
  Average % Knockdown & Mortality after 30 min: 0%
  Average % Knockdown & Mortality after 60 min: 0%
  Average % Knockdown & Mortality after 24 hr: 9%
[2]; 4 hr, Table 48, fipronil/adjuvant in acetone
  Average % Knockdown & Mortality after 4 hr: 3%
[2]; 6 hr, Table 48, fipronil/adjuvant in acetone
  Average % Knockdown & Mortality after 6 hr: 3%

## CNC(=O)Oc1cccc2ccccc12 [carbaryl (5%)]
[1]
  Average % Mortality after 1 hr: 0%
  Average % Mortality after 3 hr: 0%
  Average % Mortality after 5 hr: 0%
  Average % Mortality after 24 hr: 0%
